Test results as given in US20240238423A9, “TETRAHYDROISOQUINOLINE HETEROBIFUNCTIONAL BCL-XL DEGRADERS” (Treeline Biosciences, Inc., priority 2022, published 2024).
Where two headings read alike, the source gives them in different places.

Biological target: T1, Human BCL-XL protein (N-terminal HiBiT tagged BCL-XL in HT1080 cells) (Homo sapiens, UniProt Q07817)
T1 construct: expressed in transfected cells; host or cells: HT-1080 (ATCC CCL-121), stably transduced with lentivirus pLV-UBC-N-HiBiT-BCL-XL-PGK-puro and selected with puromycin
Assay: HiBiT based degradation assay
Type: cell-based
Settings: HT1080 cells expressing HiBiT-BCL-XL; for Ymin (6 h) / Ymin (24 h): BCL-XL degradation normalized with DMSO control; for DC50: BCL-XL degradation
How it was run: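 HT1080 cells stably transduced by lentivirus with N-terminally HiBiT-tagged human BCL-XL and kept under 1 μg/mL puromycin selection were seeded at three thousand cells per well in 40 μL RPMI 1640 into 384-well plates pre-spotted with compounds across a concentration range. Luminescence was read on a PHERAstar FSX, normalized to DMSO, and fitted with a four-parameter logistic model.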

T1 sequence (Q07817 whole entry): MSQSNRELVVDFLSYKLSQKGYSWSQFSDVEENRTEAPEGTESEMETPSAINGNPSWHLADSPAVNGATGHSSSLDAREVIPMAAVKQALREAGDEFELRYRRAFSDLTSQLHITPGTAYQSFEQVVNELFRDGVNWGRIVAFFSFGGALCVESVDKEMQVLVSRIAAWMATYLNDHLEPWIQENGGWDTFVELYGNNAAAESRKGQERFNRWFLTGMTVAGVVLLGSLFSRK

Row | Ymin (6 h) | Ymin (24 h) | DC50 (6 h, read-out: EC50 (6 h)) | DC50 (24 h, read-out: EC50 (24 h)) | Compound
1 | B (50% ≤ Ymin < 70%) | A (Ymin < 50%) | < 100 nM | < 100 nM | Cc1c(O[C@H]2CC[C@H](CCCN3CCN(c4ccc5c(C6CCC(=O)NC6=O)nn(C)c5c4)CC3)CC2)cccc1-c1ccc(N2CCc3cccc(C(=O)Nc4nc5ccccc5s4)c3C2)nc1C(=O)O (stereo partly shown) [Compound 148a, 6-(8-(benzo[d]thiazol-2-ylcarbamoyl)-3,4-dihydroisoquinolin-2(1H)-yl)-3-(3-(((1s,4r)-4-(3-(4-(3-(2,6-dioxopiperidin-3-yl)-1-methyl-1H-indazol-6-yl)piperazin-1-yl)propyl)cyclohexyl)oxy)-2-methylphenyl)picolinic acid]
2 |  | A (Ymin < 50%) |  | < 100 nM | Cc1c(O[C@H]2CC[C@@H](CCCN3CCN(c4ccc5c(C6CCC(=O)NC6=O)nn(C)c5c4)CC3)CC2)cccc1-c1ccc(N2CCc3cccc(C(=O)Nc4nc5ccccc5s4)c3C2)nc1C(=O)O (stereo partly shown) [Compound 148b, 6-(8-(benzo[d]thiazol-2-ylcarbamoyl)-3,4-dihydroisoquinolin-2(1H)-yl)-3-(3-(((1r,4s)-4-(3-(4-(3-(2,6-dioxopiperidin-3-yl)-1-methyl-1H-indazol-6-yl)piperazin-1-yl)propyl)cyclohexyl)oxy)-2-methylphenyl)picolinic acid]
3 | A (Ymin < 50%) | A (Ymin < 50%) | < 100 nM | < 100 nM | Cc1cc(OCCCN2C[C@@H](C)N(CC(=O)N3CCN(c4ccc5c(C6CCC(=O)NC6=O)nn(C)c5c4)CC3)[C@@H](C)C2)ccc1-c1ccc(N2CCc3cccc(C(=O)Nc4nc5ccccc5s4)c3C2)nc1C(=O)O (stereo partly drawn) [Compound 154a, 6-(8-(Benzo[d]thiazol-2-ylcarbamoyl)-3,4-dihydroisoquinolin-2(1H)-yl)-3-(4-(3-((3R,5S)-4-(2-(4-(3-(2,6-dioxopiperidin-3-yl)-1-methyl-1H-indazol-6-yl)piperazin-1-yl)-2-oxoethyl)-3,5-dimethylpiperazin-1-yl)propoxy)-2-methylphenyl)picolinic acid]

Further lines, the compound ahead of its results:

Row | Compound | Ymin (6 h) | Ymin (24 h) | DC50 (6 h, read-out: EC50 (6 h)) | DC50 (24 h, read-out: EC50 (24 h))
4 | Cc1c(Oc2ccc(CCCN3CCN(c4ccc5c(C6CCC(=O)NC6=O)nn(C)c5c4)CC3)cc2)cccc1-c1ccc(N2CCc3cccc(C(=O)Nc4nc5ccccc5s4)c3C2)nc1C(=O)O (stereo not shown) [Compound 149, 6-(8-(benzo[d]thiazol-2-ylcarbamoyl)-3,4-dihydroisoquinolin-2(1H)-yl)-3-(3-(4-(3-(4-(3-(2,6-dioxopiperidin-3-yl)-1-methyl-1H-indazol-6-yl)piperazin-1-yl)propyl)phenoxy)-2-methylphenyl)picolinic acid] | B (50% ≤ Ymin < 70%) | A (Ymin < 50%) | < 100 nM | < 100 nM
5 | Cc1c(Oc2ccc(CCCN3CCN(c4cccc5c(C6CCC(=O)NC6=O)nn(C)c45)CC3)cc2)cccc1-c1ccc(N2CCc3cccc(C(=O)Nc4nc5ccccc5s4)c3C2)nc1C(=O)O (stereo not shown) [Compound 150, 6-[8-(1,3-benzothiazol-2-ylcarbamoyl)-3,4-dihydro-1H-isoquinolin-2-yl]-3-[3-[4-[3-[4-[3-(2,6-dioxo-3-piperidyl)-1-methyl-indazol-7-yl]piperazin-1-yl]propyl]phenoxy]-2-methyl-phenyl]pyridine-2-carboxylic acid] | B (50% ≤ Ymin < 70%) | B (50% ≤ Ymin < 70%) | 100 to 1000 nM | < 100 nM
6 | Cc1c(OCCCN2CCN(CC(=O)N3CCN(c4cccc5c(C6CCC(=O)NC6=O)nn(C)c45)CC3)CC2)cccc1-c1ccc(N2CCc3cccc(C(=O)Nc4nc5ccccc5s4)c3C2)nc1C(=O)O (stereo not shown) [Compound 151, 6-(8-(Benzo[d]thiazol-2-ylcarbamoyl)-3,4-dihydroisoquinolin-2(1H)-yl)-3-(3-(3-(4-(2-(4-(3-(2,6-dioxopiperidin-3-yl)-1-methyl-1H-indazol-7-yl)piperazin-1-yl)-2-oxoethyl)piperazin-1-yl)propoxy)-2-methylphenyl)picolinic acid] | B (50% ≤ Ymin < 70%) | A (Ymin < 50%) | 100 to 1000 nM | < 100 nM
7 | Cc1cc(OCCCN2CCN(CC(=O)N3CCN(c4cccc5c(C6CCC(=O)NC6=O)nn(C)c45)CC3)CC2)ccc1-c1ccc(N2CCc3cccc(C(=O)Nc4nc5ccccc5s4)c3C2)nc1C(=O)O (stereo not shown) [Compound 152, 6-(8-(Benzo[d]thiazol-2-ylcarbamoyl)-3,4-dihydroisoquinolin-2(1H)-yl)-3-(4-(3-(4-(2-(4-(3-(2,6-dioxopiperidin-3-yl)-1-methyl-1H-indazol-7-yl)piperazin-1-yl)-2-oxoethyl)piperazin-1-yl)propoxy)-2-methylphenyl)picolinic acid] | B (50% ≤ Ymin < 70%) | A (Ymin < 50%) | < 100 nM | < 100 nM
8 | Cc1cc(OCCCN2CCN(CC(=O)N3CCN(c4ccc5c(C6CCC(=O)NC6=O)nn(C)c5c4)CC3)CC2)ccc1-c1ccc(N2CCc3cccc(C(=O)Nc4nc5ccccc5s4)c3C2)nc1C(=O)O (stereo not shown) [Compound 153, 6-(8-(Benzo[d]thiazol-2-ylcarbamoyl)-3,4-dihydroisoquinolin-2(1H)-yl)-3-(4-(3-(4-(2-(4-(3-(2,6-dioxopiperidin-3-yl)-1-methyl-1H-indazol-6-yl)piperazin-1-yl)-2-oxoethyl)piperazin-1-yl)propoxy)-2-methylphenyl)picolinic acid] | A (Ymin < 50%) | A (Ymin < 50%) | < 100 nM | < 100 nM
9 | Cc1c(OCCCCCCCCCN2CCN(c3ccc4c(C5CCC(=O)NC5=O)nn(C)c4c3)CC2)cccc1-c1ccc(N2CCc3cccc(C(=O)Nc4nc5ccccc5s4)c3C2)nc1C(=O)O (stereo not shown) [Compound 155, 6-[8-(1,3-benzothiazol-2-ylcarbamoyl)-3,4-dihydro-1H-isoquinolin-2-yl]-3-[3-[9-[4-[3-(2,6-dioxo-3-piperidyl)-1-methyl-indazol-6-yl]piperazin-1-yl]nonoxy]-2-methyl-phenyl]pyridine-2-carboxylic acid] | B (50% ≤ Ymin < 70%) | A (Ymin < 50%) | < 100 nM | < 100 nM
10 | Cc1c(OCC2CC3(CCN(CC(=O)Nc4ccc5c(C6CCC(=O)NC6=O)nn(C)c5c4)CC3)C2)cccc1-c1ccc(N2CCc3cccc(C(=O)Nc4nc5ccccc5s4)c3C2)nc1C(=O)O (stereo not shown) [Compound 156, 6-(8-(benzo[d]thiazol-2-ylcarbamoyl)-3,4-dihydroisoquinolin-2(1H)-yl)-3-(3-((7-(2-((3-(2,6-dioxopiperidin-3-yl)-1-methyl-1H-indazol-6-yl)amino)-2-oxoethyl)-7-azaspiro[3.5]nonan-2-yl)methoxy)-2-methylphenyl)picolinic acid] | A (Ymin < 50%) | A (Ymin < 50%) | < 100 nM | < 100 nM
11 | Cc1c(-c2ccc(N3CCc4cccc(C(=O)Nc5nc6ccccc6s5)c4C3)nc2C(=O)NCCCCCCCC(=O)Nc2ccc3c(C4CCC(=O)NC4=O)nn(C)c3c2)cnn1CC12CC3CC(CC(C3)C1)C2 (stereo not shown) [Compound 157, 2-(5-(1-(((3r,5r,7r)-adamantan-1-yl)methyl)-5-methyl-1H-pyrazol-4-yl)-6-((8-((3-(2,6-dioxopiperidin-3-yl)-1-methyl-1H-indazol-6-yl)amino)-8-oxooctyl)carbamoyl)pyridin-2-yl)-N-(benzo[d]thiazol-2-yl)-1,2,3,4-tetrahydroisoquinoline-8-carboxamide] | B (50% ≤ Ymin < 70%) |  | < 100 nM | 
